Data published in US5705487A, “Antithrombotic agents” (priority 1995, dated 1998).
Counter-ions that a name gives are not always drawn.

What was measured:
Assay type in all cases: biochemical
Human Plasma [1] = experiment: Human plasma anticoagulation, prothrombin time (PT); settings: concentration required to double the clotting time
Protocol: (§1) Dog plasma and rat plasma is obtained from conscious mixed-breed hounds (either sex, Hazelton-LRE, Kalamazoo, Mich., U.S.A.) or from anesthetized male Sprague-Dawley rats (Harlan Sprague-Dawley, Inc., Indianapolis, Ind., U.S.A.) by venipuncture into 3.8 percent citrate. Fibrinogen is prepared from in-date ACD human blood as the fraction I-2 according to previous procedures and specifications. […] Human fibrinogen is also purchased as 98 percent pure/plasmin free from American Diagnostica, Greenwich, Conn. Coagulation reagents ACTIN, Thromboplastin, and Human plasma are from Baxter Healthcare Corp., Dade Division, Miami, Fla. Bovine thrombin from Parke-Davis ([…], Mich.) is used for coagulation assays in plasma.
(§2) Coagulation assay procedures are as previously described. […] A CoAScreener coagulation instrument (American LABor, Inc.) is used for all coagulation assay measurements. The prothrombin time (PT) is measured by adding 0.05 mL saline and 0.05 mL Thromboplastin-C reagent to 0.05 mL test plasma. The activated partial thromboplastin time (APTT) is measured by incubation of 0.05 mL test plasma with 0.05 mL Actin reagent for 120 seconds followed by 0.05 mL CaCl2 (0.02M). The thrombin time (TT) is measured by adding 0.05 mL saline and 0.05 mL thrombin (10 NIH units/mL) to 0.05 mL test plasma. The compounds of Formula I are added to human or animal plasma over a wide range of concentrations to determine prolongation effects on the APTT, PT, and TT assays. Linear extrapolations are performed to estimate the concentrations required to double the clotting time for each assay.

Human Plasma [2] = experiment: Human plasma anticoagulation, thrombin time (TT); settings: concentration required to double the clotting time
Protocol: as §1, §2

Human Thrombin = Human Thrombin (Homo sapiens, UniProt P00734); experiment: Inhibition of the amidase activity of thrombin (Kass); settings: chromogenic substrate N-benzoyl-Phe-Val-Arg-p-nitroanilide; mean over range of concentrations
Protocol: The 150 μL of an aqueous solution of the chromogenic substrate (at 0.25 mg/mL) are added and the rates of hydrolysis of the substrate are measured by monitoring the reactions at 405 nm for the release of p-nitroaniline. Standard curves are constructed by plotting free thrombin concentration against hydrolysis rate. […] The amount of free inhibitor in each assay is calculated by subtracting the number of moles of bound thrombin from the number of moles of added inhibitor (test compound).
The Kass value is the hypothetical equilibrium constant for the reaction between thrombin and the test compound (I).
Kass is calculated for a range of concentrations of test compounds and the mean value is reported in units of liter per mole.

Human plasmin = biological target: T1, Human plasmin (Homo sapiens, UniProt P00747); experiment: Kass, plasmin chromogenic substrate assay; settings: substrate H-D-Val-Leu-Lys-p-nitroanilide
T1 construct: Human plasmin is purchased from Boehringer Mannheim; purchased Boehringer Mannheim, Indianapolis, Ind

Bovine trypsin = biological target: T2, Bovine trypsin (Bos taurus, UniProt P00760); experiment: Kass, trypsin chromogenic substrate assay; settings: substrate N-Benzoyl-Phe-Val-Arg-p-nitroanilide
T2 construct: Bovine trypsin is purchased from Worthington Biochemicals; purchased Worthington Biochemicals, Freehold, N.J
T2 sequence (P00760 24-246): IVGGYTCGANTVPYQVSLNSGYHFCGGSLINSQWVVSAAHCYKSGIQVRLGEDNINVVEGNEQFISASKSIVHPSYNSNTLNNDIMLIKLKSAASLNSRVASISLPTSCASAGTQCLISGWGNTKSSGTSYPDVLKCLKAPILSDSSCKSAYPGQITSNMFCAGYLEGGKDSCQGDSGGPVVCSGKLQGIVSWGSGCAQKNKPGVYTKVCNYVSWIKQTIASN

factor Xa = biological target: T3, factor Xa (Homo sapiens, UniProt P00742); experiment: Kass, factor Xa chromogenic substrate assay; settings: substrate N-Benzoyl-Ile-Glu-Gly-Arg-p-nitroanilide
T3 construct: Human factors X, Xa, IXa, XIa, and XIIa are purchased; purchased Enzyme Research Laboratories, South Bend, Ind
Protocol: (§3) By substantially following the procedures described above for human thrombin, and using other human blood coagulation system serine proteases and proteases of the fibrinolytic system with the appropriate chromogenic substrates, identified below, selectivity of the compounds of the present invention with respect to the coagulation factor serine proteases and with respect to the fibrinolytic system serine proteases are evaluated as well as their substantial lack of interference with serine proteases of the fibrinolytic system.
Chromogenic substrates: N-Benzoyl-Ile-Glu-Gly-Arg-p-nitroanilide (for factor Xa); N-Cbz-D-Arg-Gly-Arg-p-nitroanilide (for factor IXa assay as the factor Xa substrate); Pyroglutamyl-Pro-Arg-p-nitroanilide (for Factor XIa and for aPC); H-D-Pro-Phe-Arg-p-nitroanilide (for factor XIIa); and Pyroglutamyl-Gly-Arg-p-nitroanilide (for urokinase); are purchased from KabiVirum, Stockholm, Sweden, or from Midwest Biotech, Fishers, Ind. Bovine trypsin is purchased from Worthington Biochemicals, Freehold, N.J., and human plasma kallikrein from Kabi Vitrum, Stockholm, Sweden. […] N-Benzoyl-Phe-Val-Arg-p-nitroanilide, the substrate for human thrombin and for trypsin, is synthesized according to procedures described above for the compounds of the present invention, using known methods of peptide coupling from commercially available reactants or purchased from Midwest Biotech, Fishers, Ind.

Human Plasma [3] = experiment: Human plasma anticoagulation, activated partial thromboplastin time (APTT); settings: concentration required to double the clotting time
Protocol: as §1, §2

t-PA = biological target: T4, t-PA (Homo sapiens, UniProt P00750); experiment: Kass, t-PA chromogenic substrate assay; settings: substrate H-D-Ile-Pro-Arg-p-nitroanilide
T4 construct: purchased American Diagnostica, Greenwich, Conn
T4 sequence (P00750 36-562): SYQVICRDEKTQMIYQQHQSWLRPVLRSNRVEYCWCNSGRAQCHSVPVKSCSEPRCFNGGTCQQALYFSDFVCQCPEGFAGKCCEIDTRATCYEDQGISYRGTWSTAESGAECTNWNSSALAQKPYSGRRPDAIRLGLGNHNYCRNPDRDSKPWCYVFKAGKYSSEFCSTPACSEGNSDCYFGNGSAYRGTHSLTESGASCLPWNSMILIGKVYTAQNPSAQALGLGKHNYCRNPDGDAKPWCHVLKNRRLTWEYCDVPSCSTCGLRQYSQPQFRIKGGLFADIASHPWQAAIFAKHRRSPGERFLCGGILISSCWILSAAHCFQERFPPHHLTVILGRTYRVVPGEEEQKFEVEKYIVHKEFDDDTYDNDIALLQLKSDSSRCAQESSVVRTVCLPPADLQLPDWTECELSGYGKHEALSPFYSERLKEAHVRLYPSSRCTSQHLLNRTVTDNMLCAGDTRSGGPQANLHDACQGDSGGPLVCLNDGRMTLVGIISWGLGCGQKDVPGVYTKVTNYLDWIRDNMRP
Protocol: as §3
Human plasmin is purchased from Boehringer Mannheim, Indianapolis, Ind.; nt-PA is purchased as single chain activity reference from American Diagnostica, Greenwich, Conn.; modified-t-PA6 (mt-PA6) is prepared at Eli Lilly and Company by procedure known in the art (See, Burck, et al., J. Biol. Chem., 265, 5120-5177 (1990). Plasmin chromogenic substrate H-D-Val-Leu-Lys-p-nitroanilide and tissue plasminogen activator (t-PA) substrate H-D-Ile-Pro-Arg-p-nitroanilide are purchased from Kabi Vitrum, Stockholm, Sweden.

T1 sequence (P00747 581-810 limits assumed): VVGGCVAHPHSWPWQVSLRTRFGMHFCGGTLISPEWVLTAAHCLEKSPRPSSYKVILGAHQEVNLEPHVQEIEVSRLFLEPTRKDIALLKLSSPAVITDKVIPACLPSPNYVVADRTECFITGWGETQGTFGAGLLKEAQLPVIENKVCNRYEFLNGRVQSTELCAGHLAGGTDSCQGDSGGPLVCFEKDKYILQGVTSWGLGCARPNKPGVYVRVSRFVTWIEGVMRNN
T1 sequence (P00747 97-580 partner limits assumed): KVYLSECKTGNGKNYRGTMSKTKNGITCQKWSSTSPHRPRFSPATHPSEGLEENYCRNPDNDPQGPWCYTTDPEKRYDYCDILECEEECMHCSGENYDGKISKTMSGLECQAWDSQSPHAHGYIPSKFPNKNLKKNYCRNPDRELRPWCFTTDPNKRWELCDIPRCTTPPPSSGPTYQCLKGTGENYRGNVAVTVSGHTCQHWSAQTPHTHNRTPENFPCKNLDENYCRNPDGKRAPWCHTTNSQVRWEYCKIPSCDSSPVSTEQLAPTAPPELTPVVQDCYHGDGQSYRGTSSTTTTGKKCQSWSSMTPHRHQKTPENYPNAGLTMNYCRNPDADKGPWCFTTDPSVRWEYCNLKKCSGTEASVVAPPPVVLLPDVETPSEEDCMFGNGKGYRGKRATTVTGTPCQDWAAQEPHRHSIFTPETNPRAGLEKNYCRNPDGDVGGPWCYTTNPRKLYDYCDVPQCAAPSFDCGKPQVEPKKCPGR
T3 sequence (P00742 235-488 limits assumed): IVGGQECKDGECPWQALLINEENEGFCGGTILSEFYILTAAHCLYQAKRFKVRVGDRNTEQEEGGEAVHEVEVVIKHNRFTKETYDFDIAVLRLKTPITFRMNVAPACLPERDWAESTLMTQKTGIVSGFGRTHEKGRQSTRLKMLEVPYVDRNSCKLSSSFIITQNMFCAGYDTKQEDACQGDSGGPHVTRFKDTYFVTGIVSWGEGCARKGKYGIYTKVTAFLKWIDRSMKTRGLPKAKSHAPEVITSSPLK
T3 sequence (P00742 41-179 partner limits assumed): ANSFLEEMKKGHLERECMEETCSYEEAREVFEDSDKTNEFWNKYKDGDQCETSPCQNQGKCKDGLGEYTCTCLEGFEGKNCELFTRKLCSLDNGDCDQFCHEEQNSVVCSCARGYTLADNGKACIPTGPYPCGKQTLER

For `N=C(N)Nc1ccc(CCNC(=O)[C@@H]2CCCN2C(=O)[C@@H]2NCC[C@@H]3CCCC[C@@H]32)cc1` [Example 39, D-1-Piq-Pro-p-NHCH2 CH2 C6 H4 NHC (NH) NH2.2HCl], the “Human Plasma Anticoagulation 2x Clotting time PT” value (Human Plasma [1]) was 78,600 ng/mL, the “Human Plasma Anticoagulation 2x Clotting time TT” value (Human Plasma [2]) was 5,300 ng/mL and the “Kass × 10^6 (L/mole) Human Thrombin” value (Human Thrombin) was 0.12 × 10^6 L/mole. For the same compound, the “Kass × 10^6 (L/mole) Plasmin” value (Human plasmin) was < 0.001 × 10^6 L/mole, the “Kass × 10^6 (L/mole) Trypsin” value (Bovine trypsin) was < 0.02 × 10^6 L/mole and the “Kass × 10^6 (L/mole) Xa” value (factor Xa) was < 0.001 × 10^6 L/mole. For the same compound, the “Human Plasma Anticoagulation 2x Clotting time APTT” value (Human Plasma [3]) was 69,200 ng/mL.
For `N=C(N)Nc1ccc(CNC(=O)[C@@H]2CCCN2C(=O)[C@@H]2NCC[C@@H]3CCCC[C@@H]32)cc1` [Example 38, D-1-Piq-Pro-p-NHCH2 C6 H4 NHC(NH)NH2.2HCl], the “Human Plasma Anticoagulation 2x Clotting time PT” value (Human Plasma [1]) was 11,100 ng/mL, the “Human Plasma Anticoagulation 2x Clotting time TT” value (Human Plasma [2]) was 540 ng/mL and the “Kass × 10^6 (L/mole) Human Thrombin” value (Human Thrombin) was 1.1 × 10^6 L/mole. For the same compound, the “Kass × 10^6 (L/mole) Plasmin” value (Human plasmin) was < 0.001 × 10^6 L/mole, the “Kass × 10^6 (L/mole) Trypsin” value (Bovine trypsin) was 0.07 × 10^6 L/mole and the “Kass × 10^6 (L/mole) Xa” value (factor Xa) was < 0.001 × 10^6 L/mole. For the same compound, the “Human Plasma Anticoagulation 2x Clotting time APTT” value (Human Plasma [3]) was 6,100 ng/mL.
With `N=C(N)NCc1ccc(CNC(=O)[C@@H]2CCCN2C(=O)[C@H](N)Cc2ccccc2)cc1` [Example 9, D-Phe-Pro-p-NHCH2 -C6 H4 CH2 NHC(NH)NH2.2TFA] the “Kass × 10^6 (L/mole) t-PA” value (t-PA) was < 0.001 × 10^6 L/mole.
`N=C(N)Nc1cccc(CNC(=O)[C@@H]2CCCN2C(=O)[C@@H]2NCC[C@@H]3CCCC[C@@H]32)c1` [Example 40, D-1-Piq-Pro-m-NHCH2 C6 H4 NHC(NH)NH2.2HCl] was tested, and the “Human Plasma Anticoagulation 2x Clotting time PT” value (Human Plasma [1]) was > 91,000 ng/mL, the “Human Plasma Anticoagulation 2x Clotting time TT” value (Human Plasma [2]) was 35,100 ng/mL and the “Kass × 10^6 (L/mole) Human Thrombin” value (Human Thrombin) was 0.03 × 10^6 L/mole. For the same compound, the “Kass × 10^6 (L/mole) Plasmin” value (Human plasmin) was < 0.001 × 10^6 L/mole, the “Kass × 10^6 (L/mole) Trypsin” value (Bovine trypsin) was 0.01 × 10^6 L/mole and the “Kass × 10^6 (L/mole) Xa” value (factor Xa) was < 0.001 × 10^6 L/mole. The “Human Plasma Anticoagulation 2x Clotting time APTT” value (Human Plasma [3]) was > 91,000 ng/mL.
For `N=C(N)Nc1cccc(CCNC(=O)[C@@H]2CCCN2C(=O)[C@@H]2NCC[C@@H]3CCCC[C@@H]32)c1` [Example 41, D-1-Piq-Pro-m-NHCH2 CH2 C6 H4 NHC(NH)NH2.2HCl], the “Human Plasma Anticoagulation 2x Clotting time PT” value (Human Plasma [1]) was > 91,000 ng/mL, the “Human Plasma Anticoagulation 2x Clotting time TT” value (Human Plasma [2]) was 82,200 ng/mL and the “Kass × 10^6 (L/mole) Human Thrombin” value (Human Thrombin) was 0.01 × 10^6 L/mole. The “Kass × 10^6 (L/mole) Plasmin” value (Human plasmin) was < 0.001 × 10^6 L/mole, the “Kass × 10^6 (L/mole) Trypsin” value (Bovine trypsin) was < 0.001 × 10^6 L/mole and the “Kass × 10^6 (L/mole) Xa” value (factor Xa) was < 0.001 × 10^6 L/mole. The “Human Plasma Anticoagulation 2x Clotting time APTT” value (Human Plasma [3]) was > 91,000 ng/mL.
`CCS(=O)(=O)N[C@H](Cc1ccccc1)C(=O)N1CCC[C@H]1C(=O)NCCc1cccc(N=C(N)N)c1.Cl` [Example 37, EtSO2 -D-Phe-Pro-m-NHCH2 CH2 C6 H4 NHC(NH)NH2.HCl] was tested, and the “Human Plasma Anticoagulation 2x Clotting time PT” value (Human Plasma [1]) was > 9,000 ng/mL, the “Human Plasma Anticoagulation 2x Clotting time TT” value (Human Plasma [2]) was > 9,000 ng/mL and the “Kass × 10^6 (L/mole) Human Thrombin” value (Human Thrombin) was 0.02 × 10^6 L/mole. For the same compound, the “Kass × 10^6 (L/mole) Xa” value (factor Xa) was < 0.009 × 10^6 L/mole and the “Human Plasma Anticoagulation 2x Clotting time APTT” value (Human Plasma [3]) was > 9,000 ng/mL.
With `O=C(O)CN[C@H](CC1CCCCC1)C(=O)N1CCC[C@H]1C(=O)NCC1CCNCC1` [Example 53, HO2 CCH2 -D-Cha-Pro-4-NHCH2 -piperidine.HCl] the “Kass × 10^6 (L/mole) t-PA” value (t-PA) was < 0.001 × 10^6 L/mole and the “Kass × 10^6 (L/mole) Plasmin” value (Human plasmin) was < 0.001 × 10^6 L/mole.
For `CCS(=O)(=O)N[C@H](Cc1ccccc1)C(=O)N1CCC[C@H]1C(=O)NCc1cccc(C(=N)N)c1` [Example 24, EtSO2 -D-Phe-Pro-m-NHCH2 -C6 H4 C(=NH)NH2.HCl], the “Kass × 10^6 (L/mole) t-PA” value (t-PA) was < 0.001 × 10^6 L/mole and the “Kass × 10^6 (L/mole) Plasmin” value (Human plasmin) was < 0.001 × 10^6 L/mole.
